We go through 2 substances from patent US20230149452A1, “STRUCTURALLY DEFINED, BETTER TOLERATED, ORALLY ADMINSTERED, PROCESSED ARSENOLITE, A PROCESS FOR ITS PREPARATION, A PHARMACEUTICAL COMPOSITION AND USES THEREOF” (priority 2020, published 2023).

A short description of data set [1]: Bulk density, ASTM D6683-19. The format is physicochemical.
The conditions of data set [2]: patients; cited from earlier work.
In data set [3] the test system is chick embryo yolk sac membrane (YSM) blood vessels. As to the kind of experiment: In ovo chick embryo yolk sac membrane (YSM) angiogenesis model. The format is in vivo, white Leghorn breed of fowls. The conditions noted are these: all tested concentrations, 24 hr after treatment, in comparison with control.

The substance Arsenic tri oxide [ATO] registered a bulk density in data set [1] of 1.3336 g/mL. In data set [2], the dyspepsia is 24%, the “elevation in liver enzymes” value is given as 42%, the headache is on record as 29% and the herpes zoster reactivation is listed as 13%. In addition, in data set [2], the menorrhagia is recorded as 4% and the rash is 11%.

With “Avastin: monoclonal antibody targeted against VEGF, approved by FDA for therapeutic intervention in cancer”, in data set [3], the “number of quaternary blood vessels” value is “significant decrease”.
